From PubChem BioAssay (NCI)
Values joined by “and” are separate entries in the source; they are usually repeats but may differ in a detail not shown here. Identical values can stand only once.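 These data come from cells grown in 96-well plates and exposed to compound for 48 hours at five concentrations. GI50 marks 50% less growth. TGI is the concentration that stops growth completely.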

Experiments:
Experiment in all cases: NCI tumour cell line growth inhibition, 48 h
U251 CNS = system: U251 CNS
SN12K1 renal = system: SN12K1 renal
SF-295 CNS = system: SF-295 CNS
SNB-75 CNS = system: SNB-75 CNS
OVCAR-3 ovarian = system: OVCAR-3 ovarian
MDA-MB-435 = system: MDA-MB-435
COLO 205 colon = system: COLO 205 colon
KM12 colon = system: KM12 colon
LXFL 529 NSCLC = system: LXFL 529 NSCLC
NCI-H522 lung = system: NCI-H522 lung
HOP-62 NSCLC = system: HOP-62 NSCLC
K-562 leukemia = system: K-562 leukemia
SK-MEL-2 melanoma = system: SK-MEL-2 melanoma
M19-MEL melanoma = system: M19-MEL melanoma
P388 leukemia = system: P388 leukemia
BT-549 breast = system: BT-549 breast
OVCAR-4 ovarian = system: OVCAR-4 ovarian
RXF 393 renal = system: RXF 393 renal
SF-268 CNS = system: SF-268 CNS
SR leukemia = system: SR leukemia
TK-10 renal = system: TK-10 renal
SNB-19 CNS = system: SNB-19 CNS
IGROV1 ovarian = system: IGROV1 ovarian
HCT-116 colon = system: HCT-116 colon
P388/ADR leukemia = system: P388/ADR leukemia
ACHN renal = system: ACHN renal
SN12C renal = system: SN12C renal
EKVX NSCLC = system: EKVX NSCLC
UACC-257 melanoma = system: UACC-257 melanoma
HCT-15 colon = system: HCT-15 colon
A549 NSCLC = system: A549 NSCLC
M14 melanoma = system: M14 melanoma
DLD-1 colon = system: DLD-1 colon
HOP-92 NSCLC = system: HOP-92 NSCLC
RPMI-8226 leukemia = system: RPMI-8226 leukemia
SK-OV-3 ovarian = system: SK-OV-3 ovarian
SNB-78 CNS = system: SNB-78 CNS
KM20L2 colon = system: KM20L2 colon
NCI-H23 lung = system: NCI-H23 lung
SK-MEL-5 melanoma = system: SK-MEL-5 melanoma
RXF-631 renal = system: RXF-631 renal
T-47D breast = system: T-47D breast
HT29 colon = system: HT29 colon
OVCAR-8 ovarian = system: OVCAR-8 ovarian
HOP-18 NSCLC = system: HOP-18 NSCLC
UACC-62 melanoma = system: UACC-62 melanoma
MDA-MB-231 breast = system: MDA-MB-231 breast

## COc1cccc2c1C(=O)c1c(O)c3c(c(O)c1C2=O)C[C@@](O)(C(C)=O)C[C@@H]3OC1CC(N)C(O)C(C)O1 (stereo not given in full)
U251 CNS
  GI50: < 14.5 nM
SN12K1 renal
  TGI: 215 nM
SF-295 CNS
  GI50: < 14.7 nM
SNB-75 CNS
  GI50: 16.1 nM
OVCAR-3 ovarian
  GI50: 66.4 nM
MDA-MB-435
  GI50: 87.7 nM
COLO 205 colon
  TGI: 1.28 µM [middle of 6 runs]
KM12 colon
  GI50: 44.3 nM
LXFL 529 NSCLC
  TGI: 1480 nM and 1360 nM and > 5010 nM
NCI-H522 lung
  GI50: < 15.5 nM
HOP-62 NSCLC
  GI50: < 12.7 nM
K-562 leukemia
  GI50: < 10 nM
SK-MEL-2 melanoma
  GI50: 122 nM
M19-MEL melanoma
  GI50: > 5010 nM
P388 leukemia
  TGI: 383 nM
BT-549 breast
  GI50: 48.2 nM
OVCAR-4 ovarian
  GI50: 64.3 nM
RXF 393 renal
  GI50: 60.2 nM
SF-268 CNS
  GI50: 18.3 nM
SR leukemia
  TGI: 239 nM and 908 nM
TK-10 renal
  GI50: 144 nM
SNB-19 CNS
  GI50: < 13.5 nM
IGROV1 ovarian
  GI50: < 37.4 nM
HCT-116 colon
  GI50: < 13.5 nM
P388/ADR leukemia
  TGI: 9870 nM
ACHN renal
  GI50: < 11 nM
SN12C renal
  GI50: < 17.9 nM
EKVX NSCLC
  GI50: 266 nM
UACC-257 melanoma
  GI50: 68.5 nM
HCT-15 colon
  TGI: 8.07 µM [middle of 6 runs]
A549 NSCLC
  GI50: 15.3 nM
M14 melanoma
  GI50: 48.7 nM
DLD-1 colon
  GI50: > 5010 nM
  TGI: 5530 nM and 6330 nM and > 5010 nM
HOP-92 NSCLC
  GI50: < 10.4 nM
RPMI-8226 leukemia
  GI50: 13.6 nM
SK-OV-3 ovarian
  GI50: 18.9 nM
SNB-78 CNS
  GI50: 184 nM
  TGI: 2490 nM and 3430 nM
KM20L2 colon
  TGI: 2860 nM and 1450 nM and > 5010 nM
NCI-H23 lung
  GI50: < 23.5 nM
SK-MEL-5 melanoma
  GI50: < 18 nM
RXF-631 renal
  GI50: 212 nM
  TGI: 3120 nM and 4250 nM
T-47D breast
  GI50: < 17.6 nM
HT29 colon
  GI50: 24.6 nM
OVCAR-8 ovarian
  GI50: < 20.1 nM
HOP-18 NSCLC
  GI50: > 5010 nM
UACC-62 melanoma
  GI50: < 16.6 nM
MDA-MB-231 breast
  GI50: 53.4 nM
